Results on two compounds are retold here after US12012404B2, “Pyrimidoheterocyclic compounds and application thereof” (D3 BIO (WUXI) CO., LTD., priority 2020, dated 2024).

Data set [1] relates to plasma protein of cynomolgus monkeys. The data set can be described thus: Protein binding rate by equilibrium dialysis, cynomolgus monkeys plasma. The note with it: 2 μM, dialysis 4 hours. It counts as in vitro ADME. As for the experimental part:
(§1) Purpose of the assay: Protein binding rate of the assay compounds in plasma of CD-1 mice, SD rats, beagle dogs, cynomolgus monkeys and human was determined by equilibrium dialysis.
(§2) Procedure of the assay: Plasma samples with a compound concentration of 2 μM were prepared using plasma of the above five species, placed in a 96-well equilibrium dialysis device, and dialyzed with phosphate buffer solution at 37±1° C. for 4 hours. Warfarin was used as the control compound in this assay. The concentrations of the assay compounds in plasma and dialysis buffer were determined by LC-MS/MS method.

Data set [2] can be described thus: Stability assay in whole blood, cynomolgus monkeys. The format is in vitro ADME. The conditions noted are these: 5 μM, 37° C. Here is the method:
(§3) Purpose of the assay: Stabilities of the assay compounds in whole blood of CD-1 mice, SD rats, Beagle dogs and cynomolgus monkeys were assayed, respectively.
(§4) Procedure of the assay: On the day of the assay or the day before the assay, fresh whole blood from CD-1 mice, SD rats, beagle dogs, and cynomolgus monkeys was collected using anticoagulant EDTA-K2. Prior to the start of the assay, the whole blood was mixed with PBS in 1:1 (v:v) and the mixture was preheated in a 37° C. water bath for 10-20 minutes. […] […] All samples were incubated in a 37° C. water bath. The final incubation concentration of the compound was 5 μM and the final incubation concentration of the control compound was 2 μM. At the end of incubation for each time point, the corresponding incubation plate was removed and 100 μL of ultrapure water was immediately added to the corresponding sample wells, and mixed well. 800 μL of a solution of 200 ng/mL tolbutamide and labetalol in acetonitrile was added to precipitate the protein. The sample plates were sealed and shaken well, and then centrifuged at 3220×g for 20 min. 150 μL of supernatant was taken out and analyzed by LC/MS/MS.

Data set [3] is described as follows: Stability assay in whole blood, beagle dogs. The format is in vitro ADME. The conditions noted are these: 5 μM, 37° C. As for the experimental part:
as §3, §4

Data set [4] is described as follows: In vitro stability in liver microsomes, cynomolgus monkeys. It counts as in vitro ADME. The note with it: 0.5 mg/mL. As for the experimental part: Purpose of the assay: Metabolic stabilities of the assay compounds in liver microsomes of CD-1 mice, SD rats, beagle dogs, cynomolgus monkeys, and human were assayed, respectively.
Procedure of the assay: Two 96-well incubation plates were prepared and named T60 incubation plate and NCF60 incubation plate, respectively. 445 μL of microsomal working solutions (liver microsomal protein concentration of 0.56 mg/mL) were added to the T60 incubation plate and the NCF60 incubation plate, respectively, and then the above incubation plates were pre-incubated in a 37° C. water bath for about 10 minutes.
After the pre-incubation, 5 μL of working solutions of the assay sample or the control compound were added to the T60 incubation plate and the NCF60 incubation plate, respectively, and the mixture was mixed well. 50 μL of potassium phosphate buffer was added to each well of the NCF60 incubation plate to initiate the reaction. 180 μL of stop solution (200 ng/mL tolbutamide and 200 ng/mL labetalol in acetonitrile) and 6 uL of NADPH regeneration system working solution were added to the T0 stop plate, and 54 μL of sample was transferred from T60 incubation plate to T0 stop plate (generation of TO sample). The reaction was initiated by adding 44 μL of NADPH regeneration system working solution to each well of the T60 incubation plate. Only 54 μL of microsome working solution, 6 uL of NADPH regeneration system working solution and 180 μL of stop solution were added to the Blank plate. Therefore, in samples of the assay compound or the control compound, the final reaction concentration of compound, testosterone, diclofenac and propafenone was 1 μM, the concentration of liver microsomes was 0.5 mg/mL, and the final reaction concentrations of DMSO and acetonitrile in the reaction system were 0.01% (v/v) and 0.99% (v/v), respectively.
After an appropriate time (e.g., 5, 15, 30, 45 and 60 minutes) of incubation, 180 μL of stop solutions (200 ng/mL tolbutamide and 200 ng/mL labetalol in acetonitrile) were added to the sample wells of each stop plate, respectively. 60 μL of sample was removed from the T60 incubation plate to stop the reaction. All sample plates were shaken well and then centrifuged at 3220×g for 20 minutes. Then 80 μL of supernatant was taken out from each well, and diluted in 240 μL of pure water for liquid chromatography-tandem mass spectrometry analysis. All samples were injected and analyzed by liquid chromatography-tandem mass spectrometry.

Data set [5] is described as follows: Pharmacokinetics by oral administration and intravenous injection in CD mice. The note with it: for AUCu: AUC0-last × PPB(Unbound %); for Peak concentration, Cmax, u: Cmax × PPB(Unbound %); for Cmax: read-out: Peak concentration, Cmax; for Vd: CD, iv, 2.39 mg/kg. It counts as in vivo. As for the experimental part:
2) Assay on the Pharmacokinetics of the Assay Compounds by Oral Administration and Intravenous Injection in CD Mice
The assay compound was mixed with 5% dimethyl sulfoxide/95% (10% hydroxypropyl-β-cyclodextrin) solution. The mixture was vortexed and sonicated to prepare a 1 mg/mL clear solution, which was filtered through a microporous membrane for later use. Male CD mice aged 7 to 10 weeks were selected, and administered candidate compound solutions intravenously or orally. Whole blood was collected for a certain period of time, and prepared to obtain plasma. Drug concentration was analyzed by LC-MS/MS method, and pharmacokinetic parameters were calculated by Phoenix WinNonlin software (Pharsight, USA).

Data set [6] relates to plasma protein of CD-1 mice. Briefly: Protein binding rate by equilibrium dialysis, CD-1 mice plasma. It counts as in vitro ADME. The conditions noted are these: for Protein unbound rate: CD-1 mice plasma, 2 μM, dialysis 4 hours. Here is the method:
as §1, §2

Setting [7] is: intravenous injection, 2.39 mg/kg (17), 2.0 mg/kg (8B).
Setting [8] is: oral, 14.7 mg/kg (17), 10.3 mg/kg (8B).
Where [9] appears, read: male, mouse, plasma, oral, 14.7 mg/kg (17), 10.3 mg/kg (8B).

Read-outs that look alike come from different tables or passages of the source.

`C=C(F)C(=O)N1CCN(c2nc(OCC3CCCN3C)nc3c2COC(c2c(F)c(N)cc(C)c2C(F)(F)F)C3)CC1CC#N.Cl` (single isomer, unassigned) [Compound 8B hydrochloride] gave a Protein unbound rate in data set [1] of 23.9. In addition, in data set [2], the “Detection of assay compound content within 120 min” value (“Detection” for short) was 58%. In data set [3], the “Detection” value is 96%. For the same compound, in data set [4] (1 μM), the “CLint(liver)” value worked out at 80.3 mL/min/kg, the CLint(mic) is 59.5 µL/min/mg and the T1/2 worked out at 23.3 min. Also, in data set [5] (setting [7]), the AUC0-last amounted to 1297 nM·h; the “Apparent volume of distribution, Vdss” value is recorded as 3.9 L/kg; the “Clearance rate, CL” value is 40.6 mL/min/kg; the “Half-life period, T1/2” value turned out to be 1.7 h. For the same compound, the AUCu in data set [5] (setting [7]) came to 155.6 nM·h. In data set [5] (intravenous injection, 2.39 mg/kg (17), 2.0 mg/kg (8B), Vdss/PPB(Unbound %)), the “Apparent volume of distribution, Vdss, u” value is recorded as 32.3 L/kg. In data set [5] (setting [8]), the AUC0-last was 1422 nM·h; the “Bioavailability F” value is on record as 21.9%; the “Time-to-peak, Tmax” value amounted to 1.0 h; the AUCu stood at 170.6 nM·h. In data set [5] (setting [8]), the “Peak concentration, Cmax, u” value is given as 51.7 nM and the Cmax stood at 431 nM. The Protein unbound rate in data set [6] is given as 12.0. Besides, in data set [6] (mice, as listed in PK Table 9), the “Plasma protein unbound rate PPB (Unbound %)” value is given as 12.0%.

As to `C=C(F)C(=O)N1CCN(c2nc(OC[C@@]34CCCN3C[C@H](F)C4)nc3c2COC(c2c(F)c(N)cc(C)c2C(F)(F)F)C3)C[C@@H]1CC#N` (stereo partly drawn) [Compound 17], the Protein unbound rate was 7.8 in data set [1] and 1.5 in data set [6]. Further, the “Detection” value in data set [2] worked out at 77%; in data set [3], 102%. The same compound had a CLint(mic) in data set [4] (1 μM) of 225 µL/min/mg. Further, the CLint scaled at 1 μM in data set [4] (cynomolgus monkey) worked out at 303 mL/min/kg. Moreover, the half-life at 1 μM in data set [4] (cynomolgus monkey) came out at 6.2 min. The AUCu turned out to be 20.2 nM·h in data set [5] (setting [7]) and 37.0 nM·h in data set [5] (setting [8]). The Vd came out at 169 L/kg in data set [5] (male, mouse, plasma, intravenous injection, 2.39 mg/kg (17), 2.0 mg/kg (8B), Vdss/PPB(Unbound %), read-out: Apparent volume of distribution, Vdss, u) and 2.6 L/kg in data set [5] (male, mouse, plasma, intravenous injection, 2.39 mg/kg (17), 2.0 mg/kg (8B), read-out: Apparent volume of distribution, Vdss). Besides, the area under the curve AUC(0-t) in data set [5] (male, mouse, plasma, intravenous injection, 2.39 mg/kg (17), 2.0 mg/kg (8B)) was 1.31 µM·h; in data set [5] (setting [9]), 2.4 µM·h. Further, in data set [5] (male, mouse, plasma, intravenous injection, 2.39 mg/kg (17), 2.0 mg/kg (8B), read-out: Clearance rate, CL), the clearance is 37.3 mL/min/kg. In data set [5] (male, mouse, plasma, intravenous injection, 2.39 mg/kg (17), 2.0 mg/kg (8B), read-out: Half-life period, T1/2 (converted)), the half-life is 60 min. Further, the bioavailability in data set [5] (male, mouse, plasma, oral, 14.7 mg/kg (17), 10.3 mg/kg (8B), read-out: Bioavailability F) came to 24.4%. For the same compound, the Cmax in data set [5] (setting [9]) is 1460 nM. Besides, the Tmax in data set [5] (male, mouse, plasma, oral, 14.7 mg/kg (17), 10.3 mg/kg (8B), read-out: Time-to-peak, Tmax) came to 15 min. The “Peak concentration, Cmax, u” value in data set [5] (setting [8]) was 22.5 nM.
